Data taken from article PMC7459823, “Characterization of Five Novel Anti-MRSA Compounds Identified Using a Whole-Animal Caenorhabditis elegans/Galleria mellonella Sequential-Screening Approach” (Antibiotics, 2020).

Experiments:
[1] = tested on: MRSA-MW2 infection of C. elegans; test: C. elegans–MRSA-MW2 high-throughput screen (Z-score, alive versus dead worms); type: in vivo, Caenorhabditis elegans; conditions: screening concentration 2.86 µg/mL, hits Z > 2
From the text: The five compounds: (4,4′,4″-(4-propyl-[1H]-pyrazole-1,3,5-triyl)trisphenol, PPT; (1S,2S)-2-[2-[[3-(1H-benzimidazol-2-yl)propyl]methylamino]ethyl]-6-fluoro-1,2,3,4-tetrahydro-1-(1-methylethyl)-2- naphthalenyl cyclopropanecarboxylate dihydrochloride, NNC; 4,5,6,7-tetrabromobenzotriazole, TBB; 3-[2-[2-chloro-4-[3-(2,6-dichlorophenyl)-5-(1-methylethyl)-4-isoxazolyl]methoxy]phenyl] ethenyl] benzoic acid, GW4064; and N-(cyclopropylmethoxy)-3,4,5-trifluoro-2-[(4-iodo-2-methylphenyl)amino] benzamide, PD198306) were purchased from Tocris Bioscience at the following levels of purity: PPT: >99.7%, NNC: >98%, TBB: >99%, GW4064: >97%, and PD198306: 98.8%. […] Hits were identified based on Z-scores. Z-scores are calculated from the ratio of alive versus dead worms after treatment with test compounds and represents the number of standard deviations (SD) the test compound differs from the mean using the formula Z = (x − μ)/σ; where x is the raw sample score, μ is the mean of the population and σ is the standard deviation of the population. Samples with Z > 2σ are considered hits.

A549 = conditions: human, 24 h
Experimental: Mammalian cell lines HepG2 (hepatic cells), A549 (epithelial cells), and MKN-28 (gastric cells) were used to measure the anti-proliferative properties of test compounds, as described elsewhere [28]. Cells were grown in Dulbecco’s Modified Eagle Medium (DMEM) (Gibco, Waltham, MA, USA) supplemented with 10% Fetal Bovine Serum (FBS) (Gibco, Waltham, MA, USA) and 1% penicillin/streptomycin (Gibco, Waltham, MA, USA) and maintained at 37 °C in 5% CO2. After harvesting, the cells were suspended in DMEM and 100 µL was added to the wells of 96-well plates. The test compounds were serially diluted in serum and antibiotic free DMEM, added to the monolayer of cells, and incubated at 37 °C in 5% CO2 for 24 hr. Percentage survival was calculated by comparison to DMSO-treated vehicle controls. Assays were carried out in triplicate.

MRSA-MW2 = test: Checkerboard synergy assay (FIC index); type: cell-based, Staphylococcus aureus; conditions: synergy FIC ≤ 0.5
Experimental: The combination of two antibiotics with different modes of action can reduce bacterial resistance and sometimes even restore clinical efficacy of an antibiotic that has lost effectiveness. The five compounds were tested against MRSA-MW2 in the presence of five clinical antibiotics from different classes (i.e., polymyxin B, gentamycin, erythromycin, doxycycline, and oxacillin).
Antibacterial synergy for combinations of the compounds with each other and with clinical antibiotics (doxycycline, gentamicin, polymyxin-B, oxacillin, and erythromycin) was measured using checkerboard assays. In short, Cultures of MRSA-MW2 were adjusted to OD600 = 0.06 and one compound was arrayed horizontally and other vertically in 96 well plates. The assays were carried out in triplicate, exactly as described for the antibacterial susceptibility assays. The inhibitory effects of compound combinations were evaluated using the Fractional Inhibitory Concentration (FIC) index, derived from the formula:FIC index = FICA + FICB = [A]/MICA + [B]/MICB
MIC of substance A tested in combination /MIC of substance A tested alone + MIC of substance B tested in combination/MIC of substance B tested alone. Synergy is indicated when FIC ≤ 0.5, indifference when 0.5 ≤ FIC ≤ 4, and antagonism when FIC > 4. Experiments were performed in duplicate and report the average FIC index.

Cc1cc(I)ccc1Nc1c(C(=O)NOCC2CC2)cc(F)c(F)c1F [PD198306, N-(Cyclopropylmethoxy)-3,4,5-trifluoro-2-[(4-iodo-2-methylphenyl)amino]-benzamide]
Z-Score [1]: 3.43 | Eukaryotic cell cytotoxicity (A549): 16 µg/mL | Fractional Inhibitory Concentration (FIC) Index (MRSA-MW2; with Doxycycline): 2.0 | Fractional Inhibitory Concentration (FIC) Index (MRSA-MW2; with Erythromycin): 0.5 | Fractional Inhibitory Concentration (FIC) Index (MRSA-MW2; with Gentamycin): 0.625 | Fractional Inhibitory Concentration (FIC) Index (MRSA-MW2; with Oxacillin): 0.75 | Fractional Inhibitory Concentration (FIC) Index (MRSA-MW2; with Polymyxin B): 1.0
